Measured values published in patent US11236055B2 (Venenum Biodesign, LLC, priority 2016, dated 2022).

What was measured:
human TGR5 receptor = target: T1, human TGR5 receptor (Homo sapiens, UniProt Q8TDU6); experiment: Human TGR5 cAMP production assay; assay type: cell-based; conditions: human TGR5, luminescent cAMP assay; coded A-D; read-out: Human TGR5 Lum. cAMP Activity (EC50)
T1 construct: host or cells: CHO-K1 (hTGR5-CHO cells)
T1 sequence (Q8TDU6 1-330): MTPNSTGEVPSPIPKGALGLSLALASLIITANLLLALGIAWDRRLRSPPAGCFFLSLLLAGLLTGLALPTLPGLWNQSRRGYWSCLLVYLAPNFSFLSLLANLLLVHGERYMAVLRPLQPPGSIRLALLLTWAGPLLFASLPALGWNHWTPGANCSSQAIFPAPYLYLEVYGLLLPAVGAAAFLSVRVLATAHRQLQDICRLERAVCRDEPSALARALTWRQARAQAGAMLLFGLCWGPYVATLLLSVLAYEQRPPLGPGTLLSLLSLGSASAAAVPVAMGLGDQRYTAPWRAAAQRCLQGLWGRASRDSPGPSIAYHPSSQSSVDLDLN
Procedure: Human TGR5 cAMP Production Assay
We evaluated the Compounds of the present invention for their ability to induce cAMP production using CHO-K1 cells overexpressing the human TGR5 receptor. CHO-K1 cells stably expressing human TGR5 receptor (accession number NM_001077194.1 (hTGR5) (i.e., hTGR5-CHO cells) were purchased from DiscoveRx Corporation (Fremont, Calif.). hTGR5-CHO cells were grown in Ham's F-12 media supplemented with 10% Fetal Bovine Serum, 1% Penicillin-Streptomycin, 2 mM L-Alanine L-Glutamine (Glutamax), and 800 μg/mL Geneticin selection. The cAMP production assay was performed using DiscoveRx's cAMP XS+ kit (Catalog No. 90-0075XL) following the manufacturer's recommended protocol. Briefly, hTGR5-CHO cells were harvested using non-enzymatic cell dissociation buffer (Sigma-Aldrich, St. Louis, Mo.) and 1×10^6 cells were combined in Phosphate-Buffered Saline (PBS) to a final volume of 496 μL to which 4 μL of 125 mM IBMX (Sigma-Aldrich, St. Louis, Mo.) was added. 500 μL of cAMP antibody solution was added to the harvested cells and incubated at room temperature for 20 min.
Test compounds were serially diluted (half-log dilutions) in DMSO and then further diluted 1:50 in PBS, 10 mM HEPES buffer. 2 μL of serially diluted compound was added to a 384-well low volume plate (Greiner; cat #784075) and centrifuged briefly. 2 μL of the cell/cAMP antibody mixture was then added to each compound-containing well and allowed to incubate at room temperature for one hour. Following incubation, the XS+ kits' ED/Lysis/CL Substrate Working Solution was prepared following the manufacturer's recommended protocol and 4 μL was added to each well of the plate. The plate was then incubated for one hour at room temperature. Following incubation, 4 μL of Enzyme Acceptor reagent was added to the plate and allowed to incubate overnight at room temperature. Luminescent signal was then detected using the Viewlux instrument (Perkin-Elmer, Waltham, Mass.).
(§1) In Table 33, EC50 values for both human and mouse cells were determined according to the TGR5 cAMP assays described above.

mouse TGR5 receptor = target: T2, mouse TGR5 receptor (Mus musculus, UniProt Q80SS6); experiment: Mouse TGR5 cAMP production assay (HTRF, Cisbio cAMP HiRange); assay type: cell-based; conditions: HEK293-EBNA cells overexpressing mouse TGR5, HTRF cAMP HiRange; coded A-D
T2 construct: expressed in transfected cells; host or cells: HEK293-EBNA (293 c18, ATCC CRL10852), Hygromycin B selection
T2 sequence (Q80SS6 1-329): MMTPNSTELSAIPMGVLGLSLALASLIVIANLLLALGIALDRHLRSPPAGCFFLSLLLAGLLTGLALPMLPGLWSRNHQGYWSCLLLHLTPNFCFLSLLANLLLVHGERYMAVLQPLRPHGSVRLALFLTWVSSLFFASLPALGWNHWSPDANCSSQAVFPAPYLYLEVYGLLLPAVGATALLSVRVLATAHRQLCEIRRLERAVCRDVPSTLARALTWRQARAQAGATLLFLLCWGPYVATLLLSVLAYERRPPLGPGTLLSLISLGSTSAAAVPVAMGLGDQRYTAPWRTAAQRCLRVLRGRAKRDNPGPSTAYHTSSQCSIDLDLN
From the text: Mouse TGR5 cAMP Production Assay
We evaluated compounds of the present invention for their ability to induce cAMP production in HEK-EBNA cells overexpressing the mouse TGR5 receptor. Human embryonic kidney cells (HEK293-EBNA) stably expressing mouse TGR5 receptor were established using the following procedure. Specifically, a commercially-obtained gene encoding mouse TGR5 (accession number BC116914) from Thermo Scientific (Waltham, Mass.) was cloned into an episomal expression vector. The resulting expression plasmid was then transfected into 293 c18 (ATCC® CRL10852™) cells, which express the Epstein-Barr virus nuclear antigen EBNA1 and can support the replication of episomal vectors. Selection for the plasmid was maintained with Hygromycin B. Cells were cultured and maintained in DMEM (Sigma; cat #6429) supplemented with 10% Fetal Bovine Serum, 1% penicillin/streptomycin, 2 mM L-alanine L-glutamine (GlutaMax), and 250 μg/mL Hygromycin.
2. HTRF cAMP Production Assay
In this second cAMP production assay, the cAMP production was measured in 384-well low volume plates (Greiner; cat #784075) using the Cisbio™ cAMP HiRange HTRF Assay Kit (Cisbio) according to the manufacturer's protocol.
Briefly, compounds were initially diluted in 100% DMSO (12-point serial dilution by half logs) in a 96-well plate and then were further diluted 1:50 in PBS containing 10 mM HEPES. 5 μL were transferred to the 384-well assay plate in duplicate. HEK293-EBNA cells stably overexpressing mouse TGR5 were harvested using non-enzymatic cell dissociation buffer (Sigma), spun down, then resuspended in serum-free DMEM with 500 μM IBMX at a density of 500,000 cells/mL. 5 μL of cell suspension was transferred to each well of the 384-well assay plate already containing compound. The plate was covered and incubated at room temperature for 1 hour. The d2-cAMP and anti-cAMP Ab-cryptate stock solutions were prepared as per kit instructions. Then 5 μL of each conjugate (d2 and cryptate) were added to each well of the assay plate. The plate was covered and incubated at room temperature for 1 hour. The plate was read on an Envision™ plate reader (Perkin Elmer).
as §1

| EC50 (human TGR5 receptor) [nM] | EC50 (mouse TGR5 receptor) [nM] | Structure (SMILES) |
| --- | --- | --- |
| < 100 | 100 to 999 | Cc1cnccc1-c1cccc([C@H](C)N(CCCCC(=O)O)S(=O)(=O)c2cccc(Cl)c2C)c1 [Compound 16AF, (S)-5-(3-chloro-2-methyl-N-(1-(3-(3-methylpyridin-4-yl)phenyl)ethyl)phenylsulfonamido)pentanoic acid] |
| < 100 | 100 to 999 | Cc1cnccc1-c1cccc(C(CCC#N)NS(=O)(=O)c2ccccc2C(F)(F)F)c1 (stereo not drawn) [Compound 6AD, N-(3-cyano-1-(3-(3-methylpyridin-4-yl)phenyl)-propyl)-2-(trifluoromethyl)benzenesulfonamide] |
| 100 to 999 | < 100 | Cc1cnccc1-c1cccc([C@H](C)N(CCC(=O)NCCS(=O)(=O)O)S(=O)(=O)c2cccc(Cl)c2C)c1 [Compound 20BV, (S)-2-(3-(3-chloro-2-methyl-N-(1-(3-(3-methylpyridin-4-yl)phenyl)ethyl)phenylsulfonamido)propanamido)ethanesulfonic acid] |
| < 100 | < 100 | COc1cnccc1-c1cccc(C(C)(C)NS(=O)(=O)c2ccc(Cl)cc2Cl)c1 [Compound 2BG] |
| < 100 | < 100 | Cc1cnccc1-c1cccc([C@H](C)NS(=O)(=O)c2cccc(Cl)c2C)c1 [Compound 7] |
| < 100 | 100 to 999 | Cc1cnccc1-c1cccc([C@H](C)N(CCCC(=O)NCCNC(=O)NCCC(=O)O)S(=O)(=O)c2cccc(Cl)c2C)c1 [Compound 30, (S)-3-((3-Chloro-2-methylphenyl)sulfonyl)-2-(3-(3-methylpyridin-4-yl)phenyl)-7,12-dioxo-3,8,11,13-tetraazahexadecan-16-oic acid] |
| < 100 | 100 to 999 | CCc1cnccc1-c1cccc([C@@H](C)NS(=O)(=O)c2ccccc2C(F)(F)F)c1 [Compound 5AS, (R)-N-(1-(3-(3-ethylpyridin-4-yl)phenyl)ethyl)-2-(trifluoromethyl)benzenesulfonamide] |
| < 100 | < 100 | COc1cnccc1-c1cccc(C2CN(C(=O)CS(=O)(=O)O)CCN2S(=O)(=O)c2cccc(Cl)c2C)c1 (stereo not drawn) [Compound 49AF, 2-(4-((3-chloro-2-methylphenyl)sulfonyl)-3-(3-(3-methoxypyridin-4-yl)phenyl)piperazin-1-yl)-2-oxoethanesulfonic acid] |
| < 100 | < 100 | Cc1cnccc1-c1cccc([C@H](C)N(CCCC(=O)NCCS(=O)(=O)NCC(=O)O)S(=O)(=O)c2ccccc2C(F)(F)F)c1 [Compound 20BJ] |
| 100 to 999 | 1000 to 30000 | CC(C)(NS(=O)(=O)c1ccccc1C(F)(F)F)c1cccc(-c2ccc3nccn3c2)c1 [Compound 5AJ, N-(2-(3-(imidazo[1,2-a]pyridin-6-yl)phenyl)propan-2-yl)-2-(trifluoromethyl)benzenesulfonamide] |
| 100 to 999 | 100 to 999 | Cc1c(Cl)cccc1S(=O)(=O)N(CCCC(=O)NCCS(=O)(=O)O)[C@@H](C)c1cccc(-c2ccncc2CO)c1 [Compound 20AP, (S)-2-(4-(3-chloro-N-(1-(3-(3-(hydroxymethyl)pyridin-4-yl)phenyl)ethyl)-2-methylphenylsulfonamido)butanamido)ethanesulfonic acid] |
| < 100 | 100 to 999 | COc1cnccc1-c1cccc(C(C)(C)NS(=O)(=O)c2ccc(Cl)cc2[N+](=O)[O-])c1 [Compound 2BI] |
| 100 to 999 | 100 to 999 | Cc1cnccc1-c1cccc(C2CNCCN2S(=O)(=O)c2ccccc2C(F)(F)F)c1 (racemic) [Compound 44, (+/−) 2-(3-(3-methylpyridin-4-yl)phenyl)-1-((2-(trifluoromethyl)phenyl)sulfonyl)piperazine] |
| < 100 | 100 to 999 | Cc1cnccc1-c1cccc(C(C)(C)N(CCCNc2ncc(C(=O)O)cn2)S(=O)(=O)c2cccc(Cl)c2C)c1 [Compound 27, 2-((3-((3-chloro-2-methyl-N-(2-(3-(3-methylpyridin-4-yl)phenyl)propan-2-yl)phenyl)sulfonamido)propyl)amino)pyrimidine-5-carboxylic acid] |
| 100 to 999 | < 100 | Cc1cnccc1-c1cccc(C2CN(C(=O)CCC(=O)O)CCN2S(=O)(=O)c2cccc(Cl)c2C)c1 (stereo not drawn) [Compound 46AD, 4-(4-((3-chloro-2-methylphenyl)sulfonyl)-3-(3-(3-methylpyridin-4-yl)phenyl)piperazin-1-yl)-4-oxobutanoic acid] |
| 1000 to 30000 | 1000 to 30000 | COc1cnccc1-c1cc(CNS(=O)(=O)c2cccc(C(F)(F)F)c2)ccn1 [Compound 1BS] |
| < 100 | 100 to 999 | Cc1cnccc1-c1cccc(C(C)(C)NS(=O)(=O)c2ccccc2[N+](=O)[O-])c1 [Compound 5AP, N-(2-(3-(3-methylpyridin-4-yl)phenyl)propan-2-yl)-2-nitrobenzenesulfonamide] |
| < 100 | 1000 to 30000 | Cc1cnccc1-c1cccc([C@@H](C)N(CCCC(=O)NCCS(=O)(=O)O)S(=O)(=O)c2cccc(Cl)c2C)c1 [Compound 21AP, (R)-2-(4-(3-Chloro-2-methyl-N-(1-(3-(3-methylpyridin-4-yl)phenyl)ethyl)phenylsulfonamido)butanamido)ethane-sulfonic acid] |
| < 100 | < 100 | Cc1cnccc1-c1cccc([C@H](C)N(CCCC(=O)NCCNS(=O)(=O)NOC(C)(C)C)S(=O)(=O)c2cccc(Cl)c2C)c1 [Compound 37A] |
| < 100 | 100 to 999 | COC(=O)CS(=O)(=O)NCCOCCNC(=O)CCCCN([C@@H](C)c1cccc(-c2ccncc2C)c1)S(=O)(=O)c1cccc(Cl)c1C [Compound 26AC] |
| 100 to 999 | < 100 | Cc1c(Cl)cccc1S(=O)(=O)N1CCN(C(=O)CCC(=O)O)CC1c1cccc(-c2ccncc2Cl)c1 (stereo not drawn) [Compound 46AG, 4-(4-((3-chloro-2-methylphenyl)sulfonyl)-3-(3-(3-chloropyridin-4-yl)phenyl)piperazin-1-yl)-4-oxobutanoic acid] |
